Data as given in the NIST ThermoML archive (doi:10.1016/j.jct.2008.10.010).
Numbers after ± are expanded uncertainties.

Assay: molar heat capacity at constant pressure; xn = mol fraction of the nth substance listed
Details: 101.3 kPa, Liquid, Small sample (50 mg) DSC

## CCC(C)(C)O [2-methylbutan-2-ol] + CCCCCCC
318.15 K, x1 = 0.4051
  molar heat capacity at constant pressure: 268.55 ± 4.2 J/K/mol
318.15 K, x1 = 0.4986
  molar heat capacity at constant pressure: 270.68 ± 4.2 J/K/mol
318.15 K, x1 = 0.5981
  molar heat capacity at constant pressure: 271.65 ± 4.2 J/K/mol
318.15 K, x1 = 0.7015
  molar heat capacity at constant pressure: 272.08 ± 4.2 J/K/mol
318.15 K, x1 = 0.8023
  molar heat capacity at constant pressure: 271.36 ± 4.2 J/K/mol
318.15 K, x1 = 0.9139
  molar heat capacity at constant pressure: 270.14 ± 4.2 J/K/mol
318.15 K, x1 = 0.9609
  molar heat capacity at constant pressure: 269.17 ± 4.2 J/K/mol
319.15 K, x1 = 0.0061
  molar heat capacity at constant pressure: 232.58 ± 3.6 J/K/mol
319.15 K, x1 = 0.0494
  molar heat capacity at constant pressure: 240.63 ± 3.7 J/K/mol
319.15 K, x1 = 0.1
  molar heat capacity at constant pressure: 249.49 ± 3.9 J/K/mol
319.15 K, x1 = 0.1547
  molar heat capacity at constant pressure: 255.72 ± 4 J/K/mol
319.15 K, x1 = 0.1999
  molar heat capacity at constant pressure: 259.62 ± 4 J/K/mol
319.15 K, x1 = 0.2993
  molar heat capacity at constant pressure: 265.58 ± 4.1 J/K/mol
319.15 K, x1 = 0.4051
  molar heat capacity at constant pressure: 269.3 ± 4.2 J/K/mol
319.15 K, x1 = 0.4986
  molar heat capacity at constant pressure: 271.51 ± 4.2 J/K/mol
319.15 K, x1 = 0.5981
  molar heat capacity at constant pressure: 272.56 ± 4.2 J/K/mol
319.15 K, x1 = 0.7015
  molar heat capacity at constant pressure: 273.04 ± 4.2 J/K/mol
319.15 K, x1 = 0.8023
  molar heat capacity at constant pressure: 272.38 ± 4.2 J/K/mol
319.15 K, x1 = 0.9609
  molar heat capacity at constant pressure: 270.15 ± 4.2 J/K/mol
319.16 K, x1 = 0.0249
  molar heat capacity at constant pressure: 235.12 ± 3.6 J/K/mol
319.16 K, x1 = 0.9139
  molar heat capacity at constant pressure: 271.16 ± 4.2 J/K/mol
320.14 K, x1 = 0.0061
  molar heat capacity at constant pressure: 232.92 ± 3.6 J/K/mol
320.14 K, x1 = 0.0249
  molar heat capacity at constant pressure: 235.28 ± 3.6 J/K/mol
320.14 K, x1 = 0.0494
  molar heat capacity at constant pressure: 240.72 ± 3.7 J/K/mol
320.14 K, x1 = 0.1
  molar heat capacity at constant pressure: 249.68 ± 3.9 J/K/mol
320.14 K, x1 = 0.1547
  molar heat capacity at constant pressure: 255.93 ± 4 J/K/mol
320.14 K, x1 = 0.1999
  molar heat capacity at constant pressure: 260.03 ± 4 J/K/mol
320.14 K, x1 = 0.2993
  molar heat capacity at constant pressure: 266.13 ± 4.1 J/K/mol
320.14 K, x1 = 0.4051
  molar heat capacity at constant pressure: 269.96 ± 4.2 J/K/mol
320.14 K, x1 = 0.4986
  molar heat capacity at constant pressure: 272.22 ± 4.2 J/K/mol
320.14 K, x1 = 0.5981
  molar heat capacity at constant pressure: 273.33 ± 4.2 J/K/mol
320.14 K, x1 = 0.7015
  molar heat capacity at constant pressure: 273.87 ± 4.2 J/K/mol
320.14 K, x1 = 0.8023
  molar heat capacity at constant pressure: 273.27 ± 4.2 J/K/mol
320.14 K, x1 = 0.9139
  molar heat capacity at constant pressure: 272.09 ± 4.2 J/K/mol
320.14 K, x1 = 0.9609
  molar heat capacity at constant pressure: 270.99 ± 4.2 J/K/mol
321.15 K, x1 = 0.0061
  molar heat capacity at constant pressure: 233.36 ± 3.6 J/K/mol
321.15 K, x1 = 0.0249
  molar heat capacity at constant pressure: 235.64 ± 3.6 J/K/mol
321.15 K, x1 = 0.0494
  molar heat capacity at constant pressure: 240.94 ± 3.7 J/K/mol
321.15 K, x1 = 0.1
  molar heat capacity at constant pressure: 249.94 ± 3.9 J/K/mol
321.15 K, x1 = 0.1547
  molar heat capacity at constant pressure: 256.42 ± 4 J/K/mol
321.15 K, x1 = 0.1999
  molar heat capacity at constant pressure: 260.55 ± 4 J/K/mol
321.15 K, x1 = 0.2993
  molar heat capacity at constant pressure: 266.78 ± 4.1 J/K/mol
321.15 K, x1 = 0.4051
  molar heat capacity at constant pressure: 270.74 ± 4.2 J/K/mol
321.15 K, x1 = 0.4986
  molar heat capacity at constant pressure: 273.12 ± 4.2 J/K/mol
321.15 K, x1 = 0.5981
  molar heat capacity at constant pressure: 274.26 ± 4.2 J/K/mol
321.15 K, x1 = 0.7015
  molar heat capacity at constant pressure: 274.94 ± 4.3 J/K/mol
321.15 K, x1 = 0.8023
  molar heat capacity at constant pressure: 274.3 ± 4.2 J/K/mol
321.15 K, x1 = 0.9139
  molar heat capacity at constant pressure: 273.21 ± 4.2 J/K/mol
321.15 K, x1 = 0.9609
  molar heat capacity at constant pressure: 272.08 ± 4.2 J/K/mol
322.15 K, x1 = 0.0061
  molar heat capacity at constant pressure: 233.83 ± 3.6 J/K/mol
322.15 K, x1 = 0.0249
  molar heat capacity at constant pressure: 235.95 ± 3.7 J/K/mol
322.15 K, x1 = 0.0494
  molar heat capacity at constant pressure: 241.13 ± 3.7 J/K/mol
322.15 K, x1 = 0.1
  molar heat capacity at constant pressure: 250.19 ± 3.9 J/K/mol
322.15 K, x1 = 0.1547
  molar heat capacity at constant pressure: 256.8 ± 4 J/K/mol
322.15 K, x1 = 0.1999
  molar heat capacity at constant pressure: 261.03 ± 4 J/K/mol
322.15 K, x1 = 0.2993
  molar heat capacity at constant pressure: 267.36 ± 4.1 J/K/mol
322.15 K, x1 = 0.4051
  molar heat capacity at constant pressure: 271.46 ± 4.2 J/K/mol
322.15 K, x1 = 0.4986
  molar heat capacity at constant pressure: 273.9 ± 4.2 J/K/mol
322.15 K, x1 = 0.5981
  molar heat capacity at constant pressure: 275.18 ± 4.3 J/K/mol
322.15 K, x1 = 0.7015
  molar heat capacity at constant pressure: 275.82 ± 4.3 J/K/mol
322.15 K, x1 = 0.8023
  molar heat capacity at constant pressure: 275.19 ± 4.3 J/K/mol
322.15 K, x1 = 0.9139
  molar heat capacity at constant pressure: 274.13 ± 4.2 J/K/mol
322.15 K, x1 = 0.9609
  molar heat capacity at constant pressure: 272.97 ± 4.2 J/K/mol
323.14 K, x1 = 0.0061
  molar heat capacity at constant pressure: 234.21 ± 3.6 J/K/mol
323.14 K, x1 = 0.0249
  molar heat capacity at constant pressure: 236.15 ± 3.7 J/K/mol
323.14 K, x1 = 0.0494
  molar heat capacity at constant pressure: 241.26 ± 3.7 J/K/mol
323.14 K, x1 = 0.1
  molar heat capacity at constant pressure: 250.37 ± 3.9 J/K/mol
323.14 K, x1 = 0.1547
  molar heat capacity at constant pressure: 257.15 ± 4 J/K/mol
323.14 K, x1 = 0.1999
  molar heat capacity at constant pressure: 261.38 ± 4 J/K/mol
323.14 K, x1 = 0.2993
  molar heat capacity at constant pressure: 267.94 ± 4.2 J/K/mol
323.14 K, x1 = 0.4051
  molar heat capacity at constant pressure: 272.09 ± 4.2 J/K/mol
323.14 K, x1 = 0.4986
  molar heat capacity at constant pressure: 274.67 ± 4.3 J/K/mol
323.14 K, x1 = 0.5981
  molar heat capacity at constant pressure: 275.95 ± 4.3 J/K/mol
323.14 K, x1 = 0.7015
  molar heat capacity at constant pressure: 276.7 ± 4.3 J/K/mol
323.14 K, x1 = 0.8023
  molar heat capacity at constant pressure: 276.15 ± 4.3 J/K/mol
323.14 K, x1 = 0.9139
  molar heat capacity at constant pressure: 275.08 ± 4.3 J/K/mol
323.14 K, x1 = 0.9609
  molar heat capacity at constant pressure: 273.92 ± 4.2 J/K/mol
324.15 K, x1 = 0.0061
  molar heat capacity at constant pressure: 234.52 ± 3.6 J/K/mol
324.15 K, x1 = 0.0249
  molar heat capacity at constant pressure: 236.43 ± 3.7 J/K/mol
324.15 K, x1 = 0.0494
  molar heat capacity at constant pressure: 241.45 ± 3.7 J/K/mol
324.15 K, x1 = 0.1
  molar heat capacity at constant pressure: 250.6 ± 3.9 J/K/mol
324.15 K, x1 = 0.1547
  molar heat capacity at constant pressure: 257.46 ± 4 J/K/mol
324.15 K, x1 = 0.1999
  molar heat capacity at constant pressure: 261.78 ± 4.1 J/K/mol
324.15 K, x1 = 0.2993
  molar heat capacity at constant pressure: 268.5 ± 4.2 J/K/mol
324.15 K, x1 = 0.4051
  molar heat capacity at constant pressure: 272.8 ± 4.2 J/K/mol
324.15 K, x1 = 0.4986
  molar heat capacity at constant pressure: 275.41 ± 4.3 J/K/mol
324.15 K, x1 = 0.5981
  molar heat capacity at constant pressure: 276.79 ± 4.3 J/K/mol
324.15 K, x1 = 0.7015
  molar heat capacity at constant pressure: 277.57 ± 4.3 J/K/mol
324.15 K, x1 = 0.8023
  molar heat capacity at constant pressure: 277.05 ± 4.3 J/K/mol
324.15 K, x1 = 0.9139
  molar heat capacity at constant pressure: 275.96 ± 4.3 J/K/mol
324.15 K, x1 = 0.9609
  molar heat capacity at constant pressure: 274.86 ± 4.3 J/K/mol
325.15 K, x1 = 0.0061
  molar heat capacity at constant pressure: 234.92 ± 3.6 J/K/mol
325.15 K, x1 = 0.0249
  molar heat capacity at constant pressure: 236.8 ± 3.7 J/K/mol
325.15 K, x1 = 0.0494
  molar heat capacity at constant pressure: 241.6 ± 3.7 J/K/mol
325.15 K, x1 = 0.1
  molar heat capacity at constant pressure: 250.76 ± 3.9 J/K/mol
325.15 K, x1 = 0.1547
  molar heat capacity at constant pressure: 257.7 ± 4 J/K/mol
325.15 K, x1 = 0.1999
  molar heat capacity at constant pressure: 262.12 ± 4.1 J/K/mol
325.15 K, x1 = 0.2993
  molar heat capacity at constant pressure: 269.04 ± 4.2 J/K/mol
325.15 K, x1 = 0.4051
  molar heat capacity at constant pressure: 273.4 ± 4.2 J/K/mol
325.15 K, x1 = 0.4986
  molar heat capacity at constant pressure: 276.1 ± 4.3 J/K/mol
325.15 K, x1 = 0.5981
  molar heat capacity at constant pressure: 277.56 ± 4.3 J/K/mol
325.15 K, x1 = 0.7015
  molar heat capacity at constant pressure: 278.38 ± 4.3 J/K/mol
325.15 K, x1 = 0.8023
  molar heat capacity at constant pressure: 277.92 ± 4.3 J/K/mol
325.15 K, x1 = 0.9139
  molar heat capacity at constant pressure: 276.88 ± 4.3 J/K/mol
325.15 K, x1 = 0.9609
  molar heat capacity at constant pressure: 275.71 ± 4.3 J/K/mol
326.14 K, x1 = 0.0061
  molar heat capacity at constant pressure: 235.39 ± 3.6 J/K/mol
326.14 K, x1 = 0.0249
  molar heat capacity at constant pressure: 237.1 ± 3.7 J/K/mol
326.14 K, x1 = 0.0494
  molar heat capacity at constant pressure: 241.8 ± 3.8 J/K/mol
326.14 K, x1 = 0.1
  molar heat capacity at constant pressure: 250.96 ± 3.9 J/K/mol
326.14 K, x1 = 0.1547
  molar heat capacity at constant pressure: 258.02 ± 4 J/K/mol
326.14 K, x1 = 0.1999
  molar heat capacity at constant pressure: 262.54 ± 4.1 J/K/mol
326.14 K, x1 = 0.2993
  molar heat capacity at constant pressure: 269.54 ± 4.2 J/K/mol
326.14 K, x1 = 0.4051
  molar heat capacity at constant pressure: 274.06 ± 4.2 J/K/mol
326.14 K, x1 = 0.4986
  molar heat capacity at constant pressure: 276.85 ± 4.3 J/K/mol
326.14 K, x1 = 0.5981
  molar heat capacity at constant pressure: 278.41 ± 4.3 J/K/mol
326.14 K, x1 = 0.7015
  molar heat capacity at constant pressure: 279.29 ± 4.3 J/K/mol
326.14 K, x1 = 0.8023
  molar heat capacity at constant pressure: 278.83 ± 4.3 J/K/mol
326.14 K, x1 = 0.9139
  molar heat capacity at constant pressure: 277.8 ± 4.3 J/K/mol
326.14 K, x1 = 0.9609
  molar heat capacity at constant pressure: 276.69 ± 4.3 J/K/mol
327.14 K, x1 = 0.1999
  molar heat capacity at constant pressure: 262.84 ± 4.1 J/K/mol
327.15 K, x1 = 0.0061
  molar heat capacity at constant pressure: 235.69 ± 3.6 J/K/mol
327.15 K, x1 = 0.0249
  molar heat capacity at constant pressure: 237.39 ± 3.7 J/K/mol
327.15 K, x1 = 0.0494
  molar heat capacity at constant pressure: 241.94 ± 3.8 J/K/mol
327.15 K, x1 = 0.1
  molar heat capacity at constant pressure: 251.07 ± 3.9 J/K/mol
